In patent US4939159A, “Azaindole derivatives useful as cholesterol biosynthesis inhibitors” (Sandoz Pharm. Corp., priority 1989, dated 1990):

Test system: 3β-hydroxysterol synthesis
Assay: Test B. In Vivo Cholesterol Biosynthesis Inhibition Test
Settings: Rattus norvegicus, po; rats, orally administered; read-out: ED50 (dose producing 50% inhibition of 3β-hydroxysterol synthesis)
Procedure: Test B. In Yivo Cholesterol Biosynthesis Inhibition Test:
In this test the rats are orally administered the test substance (compound of Formula I) at a dose of 0.025-200 mg/kg body weight. The obtained ED50 the dose of the test substance observed or calculated to produce a 50% inhibition of 3β -hydroxysterol synthesis.

With `CC[C@H](C)C(=O)O[C@H]1C[C@@H](C)C=C2C=C[C@H](C)[C@H](CC[C@@H]3C[C@@H](O)CC(=O)O3)[C@H]21` [Mevinolin] the ED50 was 0.38 mg/kg.
